Assay results from article PMC12888920, “MMP-9 regulates disulphide isomerase activity of TGM2 to enhance fusion glycoprotein-mediated syncytium formation of respiratory syncytial virus” (Protein & Cell, 2025).

System: RSV F/G/SH pseudovirus
Experiment: RSV F/G/SH pseudovirus entry assay (luciferase)
Type: cell-based, Respiratory syncytial virus
Conditions: 5 µmol/L, HEp-2, 48 hpi
Description: Figure 2. MMP-9 regulates late-stage RSV infection. (A) Time-of-addition assay design (left). HEp-2 cells were treated with metalloproteinase inhibitors under three regimens: “Full-time” (2 h pretreatment + continuous exposure), “Entry” (viral attachment phase only), or “Post-entry” (≥ 2 hpi). Cells infected with RSV A2 (MOI = 1) were analyzed for cytopathic effect inhibition at 72 hpi versus DMSO controls. mean ± SD, n = 3. (B) No inhibition of RSV F/G/SH pseudovirus entry by doxycycline hyclate or JNJ0966 (5 µmol/L). mean ± SD, n = 3. (C) Temporal sensitivity analysis (left). Viral RNA levels (22 hpi) in HEp-2 cells treated with 5 µmol/L inhibitors at defined intervals: pre-infection (−2–0 h), entry (0–2 h), or post-entry (2–16 h) phases (right). mean ± SD, n = 3. (D) Multicycle replication kinetics. Intracellular RSV RNA (fusion gene copies) in HEp-2 cells treated with 5 µmol/L inhibitors at indicated time points (4–144 hpi). mean ± SD, n = 3. (E) Viral assembly/release inhibition assay. Supernatant viral titers at 22 hpi after post-entry treatment (10/16 hpi) (right). mean ± SD, n = 3. (F) Dose-dependent suppression of RSV progeny (MOI = 0.2/1) by inhibitors (72 hpi), quantified by FFA. mean ± SD, n = 3. […] The results are representatively shown with three random experiments. The error bars indicate the mean ± SD of three technical replicates (n = 3). […]

Compound	inhibition of RSV F/G/SH pseudovirus entry
COc1ccccc1Nc1nc(-c2sc(NC(C)=O)nc2C)cs1 [JNJ0966]	No inhibition
Doxycycline hyclate	No inhibition
